According to US20030040534A1, “Enantiomers of N-[[2'-[[(4,5-dimethyl-3-isoxazolyl)amino]sulfonyl]-4-(2-oxazolyl)[1,1'-biphenyl]-2-yl]methyl]-N,3,3-trimethylbutanamide” (priority 2001, published 2003):
Like-named read-outs stand apart in the source and are kept apart here.

Assays:
[1] = molecular target: T1, human endothelin A receptor (Homo sapiens, UniProt P25101); test: In vitro ETA binding, attached cell assay, [125I]-ET-1 competition
T1 construct: expressed in transfected cells; host or cells: CHO-K1 (G-418 selected)
T1 sequence (P25101 21-427): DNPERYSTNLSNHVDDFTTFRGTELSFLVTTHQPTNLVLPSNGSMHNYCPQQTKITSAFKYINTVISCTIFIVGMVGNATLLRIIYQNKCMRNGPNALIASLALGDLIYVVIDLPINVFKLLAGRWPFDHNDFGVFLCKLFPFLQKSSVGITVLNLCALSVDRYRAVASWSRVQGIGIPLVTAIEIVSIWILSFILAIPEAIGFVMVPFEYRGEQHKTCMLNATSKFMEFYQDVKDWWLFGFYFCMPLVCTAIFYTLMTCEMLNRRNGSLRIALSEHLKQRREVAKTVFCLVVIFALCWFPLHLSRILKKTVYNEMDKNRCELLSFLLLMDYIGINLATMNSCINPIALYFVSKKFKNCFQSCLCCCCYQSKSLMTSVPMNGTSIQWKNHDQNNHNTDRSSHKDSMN
Procedure: The isolated atropisomers of Example 2 were tested for in vitro ETA binding according to the following procedure:
CHO-K1 cells expressing the human endothelin A receptor were cultured in Ham's F12 media (Gibco/BRL, Grand Island, N.Y.) with 10% fetal bovine serum (Hyclone), supplemented with 300 μg/mL Geneticin (G-418 Gibco BRL Products, Grand Island, N.Y.) and maintained at 37° C. with 5% CO2 in a humidified incubator. Forty eight hours prior to assay, the cells were treated with 0.25% trypsin-EDTA and were seeded in Falcon, 96 well tissue culture plates at a density of 1.5×10^4 cells/well (the monolayer should reach 80-90% confluency by the day of assay).
In the attached cell assay, culture media was aspirated from each well and the monolayers were washed with 75 μl of room temperature PBS (Mg^++, Ca^++ free). After the addition of 75 μl of cold binding buffer to each well, the plate was chilled at 4° C. for 3 minutes before the addition of competing drugs and isotope. The binding assay was performed in a total volume of 125 μl consisting of assay buffer, maintained at 4° C. (50 mM Tris, pH 7.4, including 1% BSA, and 2 μM phosphoramidon), and 25 μl of either 500 nM ET-1 (to define nonspecific binding) or competing drugs. The reaction was initiated with the addition of 25 μl of 0.25 nM [^125I]-ET-1 (New England Nuclear). Incubation was carried out with gentle orbital shaking, at 4° C., reaching equilibrium at 4 hours. The reaction was terminated by aspiration of the reaction buffer and two subsequent washes with room temperature PBS (Mg^++, Ca^++ free). The cells were dissociated by the addition of 100 μl of 0.5N NaOH followed by incubation for 40 minutes. Samples were then transferred from the 96 well format into tubes for counting in a Cobra gamma counter (Packard). Data was analyzed with curve fitting software by Sigma plot.
In each assay run that was performed, one sample of each atropisomer as well as one sample of racemate was tested for activity.

[2] = In vitro interconversion (racemization) of enantiomeric atropisomers under pseudo-physiological conditions, chiral HPLC
Procedure: The in vitro interconversion of N-[[2′-[[(4,5-dimethyl-3-isoxazolyl)amino]sulfonyl]-4-(2-oxazolyl)[1,1′-biphenyl]-2-yl]methyl]-N,3,3-trimethylbutanamide enantiomeric atropisomers was investigated using normal phase chiral HPLC with ultraviolet and laser polarimetric detection, under pseudo-physiological conditions, i.e., aqueous medium at 37° C., gastric fluid at 37° C. and human serum at 37° C.

[3] = Table 1, 97% pure atropisomers of Example 2, Run 1, CHO-K1 cells expressing human ETA, 4° C., read-out: IC50 (nM) Run 1
[4] = Table 1, 97% pure atropisomers of Example 2, Run 2, read-out: IC50 (nM) Run 2
[5] = Table 1, 97% pure atropisomers of Example 2, Run 3, read-out: IC50 (nM) Run 3
[6] = Table 1, 97% pure atropisomers of Example 2, Run 4, read-out: IC50 (nM) Run 4
[7] = Table 2, 99.2% pure atropisomers of Example 2, Run 1, read-out: IC50 (nM) Run 1
[8] = Table 2, 99.2% pure atropisomers of Example 2, Run 2, read-out: IC50 (nM) Run 2
[9] = Table 2, 99.2% pure atropisomers of Example 2, Run 3, read-out: IC50 (nM) Run 3
[10] = Table 2, 99.2% pure atropisomers of Example 2, Run 4, read-out: IC50 (nM) Run 4
[11] = Table 2, 99.2% pure atropisomers of Example 2, Run 5, read-out: IC50 (nM) Run 5
[12] = Table 2, 99.2% pure atropisomers of Example 2, Run 6, read-out: IC50 (nM) Run 6
[13] = Table 2, 99.2% pure atropisomers of Example 2, Run 7, read-out: IC50 (nM) Run 7
[14] = Table 2, 99.2% pure atropisomers of Example 2, Run 8, read-out: IC50 (nM) Run 8
[15] = Table 2, 99.2% pure atropisomers of Example 2, Run 9, read-out: IC50 (nM) Run 9

Row | SMILES | IC50 [1, 3] [nM] | IC50 [1, 4] [nM] | IC50 [1, 5] [nM] | IC50 [1, 6] [nM] | IC50 [1, 7] [nM] | IC50 [1, 8] [nM] | IC50 [1, 9] [nM] | IC50 [1, 10] [nM] | IC50 [1, 11] [nM] | IC50 [1, 12] [nM] | IC50 [1, 13] [nM] | IC50 [1, 14] [nM] | IC50 [1, 15] [nM] | further results
1 | Cc1onc(NS(=O)(=O)c2ccccc2-c2ccc(-c3ncco3)cc2CN(C)C(=O)CC(C)(C)C)c1C (single isomer, unassigned) [97% pure (−) levorotatory, N-[[2′-[[(4,5-dimethyl-3-isoxazolyl)amino]sulfonyl]-4-(2-oxazolyl)[1,1′-biphenyl]-2-yl]methyl]-N,3,3-trimethylbutanamide] | 0.41 | 0.9 | 0.6 | 1.4 | 0.1 | 0.65 | 6 | 5 | 7 | 3.7 | 21 | 14 | 19 | –
2 | Cc1onc(NS(=O)(=O)c2ccccc2-c2ccc(-c3ncco3)cc2CN(C)C(=O)CC(C)(C)C)c1C (single isomer, unassigned) [97% pure (+) dextrorotatory, N-[[2′-[[(4,5-dimethyl-3-isoxazolyl)amino]sulfonyl]-4-(2-oxazolyl)[1,1′-biphenyl]-2-yl]methyl]-N,3,3-trimethylbutanamide] | 0.03 | 0.01 | 0.01 | 0.01 | 0.002 | 0.002 | 0.7 | 0.1 | 0.3 | 0.38 | 0.34 | 0.38 | 0.41 | potency compared with the (−) levorotatory atropisomer or the racemate ([1]; endothelin antagonist, statement in words): remarkably higher potency
3 | Cc1onc(NS(=O)(=O)c2ccccc2-c2ccc(-c3ncco3)cc2CN(C)C(=O)CC(C)(C)C)c1C (racemic) [Racemate, N-[[2′-[[(4,5-dimethyl-3-isoxazolyl)amino]sulfonyl]-4-(2-oxazolyl)[1,1′-biphenyl]-2-yl]methyl]-N,3,3-trimethylbutanamide] | – | – | – | – | – | – | – | – | – | – | – | – | – | IC50 ([1]; IC50 (nM) Run 1, Table 1, 97% pure atropisomers of Example 2, Run 1, CHO-K1 cells expressing human ETA, 4° C.): 0.12 nM; IC50 ([1]; IC50 (nM) Run 1, Table 2, 99.2% pure atropisomers of Example 2, Run 1): 0.018 nM; IC50 ([1]; IC50 (nM) Run 2, Table 1, 97% pure atropisomers of Example 2, Run 2): 0.24 nM; IC50 ([1]; IC50 (nM) Run 2, Table 2, 99.2% pure atropisomers of Example 2, Run 2): 0.08 nM; IC50 ([1]; IC50 (nM) Run 3, Table 1, 97% pure atropisomers of Example 2, Run 3): 0.21 nM; IC50 ([1]; IC50 (nM) Run 3, Table 2, 99.2% pure atropisomers of Example 2, Run 3): 0.4 nM; IC50 ([1]; IC50 (nM) Run 4, Table 1, 97% pure atropisomers of Example 2, Run 4): 0.1 nM; IC50 ([1]; IC50 (nM) Run 4, Table 2, 99.2% pure atropisomers of Example 2, Run 4): 0.3 nM; IC50 ([1]; IC50 (nM) Run 5, Table 2, 99.2% pure atropisomers of Example 2, Run 5): 0.2 nM; IC50 ([1]; IC50 (nM) Run 6, Table 2, 99.2% pure atropisomers of Example 2, Run 6): 0.4 nM; IC50 ([1]; IC50 (nM) Run 7, Table 2, 99.2% pure atropisomers of Example 2, Run 7): 0.24 nM; IC50 ([1]; IC50 (nM) Run 8, Table 2, 99.2% pure atropisomers of Example 2, Run 8): 0.16 nM; IC50 ([1]; IC50 (nM) Run 9, Table 2, 99.2% pure atropisomers of Example 2, Run 9): 0.27 nM; half-life [2]: 15.8 h; half-life ([2]; buffer): ~15 h
